Test results as given in US20250122221A1 (NANJING ZAIMING PHARMACEUTICAL CO., LTD., priority 2022, published 2025).
Where two headings read alike, the source gives them in different places.

What was measured:
[1] = target: N-terminal active peptide segment (MI-N899) of POLQ with ATPase activity (Homo sapiens (Human), UniProt O75417); assay: POLQ enzyme activity inhibition experiment (ATPase, NADH-coupled, OD 340 nm); assay type: biochemical; conditions: 100 nM POLQ (N), 100 μM ATP, 300 nM dT50
Description: The Envision microplate reader from Perkin Elmer Inc was used to measure the reduction of OD value of NADH at 340 nm, thus reflecting the enzyme activity. Experimental method: The POLQ enzyme was diluted to 100 nM with a reaction buffer (20 mM Tris HCl (pH 7.80), 80 mM KCl, 10 mM MgCl2, 1 mM DTT, 0.01% w/v bovine serum albumin, 0.01% v/v Tween-20, and 5% v/v glycerol). The compounds to be tested were diluted to different concentrations in dimethyl sulfoxide (DMSO) using the Echo 650 pipetting system, and transferred to a 384-well plate, 20 μL/well of 100 nM POLQ was added, and the mixture was incubated at room temperature for 15 minutes. A reaction mixture solution was formulated, and the concentration of each component in the reaction mixture solution was: 100 μM ATP, 300 nM […], 300 μM NADH, 6 mM PEP, 10 U/mL lactate dehydrogenase and 20 U/mL pyruvate kinase. 20 μL/well of reaction mixture solution was added to start the enzyme reaction. […] The concentration range was from 10 μM to 0.0005 μM, and the final concentration of DMSO in the system was 0.2% v/v. The 384-well plate was reacted at room temperature for 20 minutes, and then the OD value at 340 nm was read with an Envision microplate reader. The inhibition rate was calculated, and XLfit software was used to perform fitting to obtain IC50 of the compounds. In the experiment, a blank group and a DMSO group were set up, respectively.

[2] = test system: DLD-1 BRCA2 (−/−) cells; assay: Inhibition of tumour cell proliferation, 7 days, CTG; assay type: cell-based; conditions: Homo sapiens, read-out: DLD-1 BRCA2 (−/−) IC50
Description: (§1) Brief introduction to the experimental principle: The compounds were co-incubated with tumour cells for 7 days, and then a CTG kit from Promega Inc was used to quantify ATP in viable cells, thus reflecting the effect of the compounds on tumour cell proliferation.
(§2) Experimental method: DLD-1 parental cells or DLD-1 BRCA2 (−/−) cells were diluted with RPMI 1640 medium containing 10% FBS, and then added to a 96-well plate (90 μL/well), with the number of cells being 600 cells/well or 1200 cells/well, respectively, and cultured overnight in a 37° C., 5% CO2 incubator. The compounds to be tested were diluted to different concentrations in dimethyl sulfoxide (DMSO), and then added to a 96-well plate. The final concentration of the compounds in the reaction system started from 25 μM, and was subjected to 4-fold gradient dilution. The concentration range of the compounds was from 25 μM to 0.0004 μM, and the final concentration of DMSO was 0.25% v/v. After 7 days of incubation, 50 μL/well CTG was added, and the mixture was incubated at room temperature for 10 minutes. Subsequently, the luminescence (Lum) signal value was read with an Envision microplate reader, and the inhibition rate and half inhibitory concentration (IC50) were calculated.
(§3) The inhibition rate was calculated, and XLfit software was used to perform fitting to obtain IC50 of the compounds.
(§4) In the experiment, a blank well and a DMSO well were set up, respectively.
(§5) Inhibition rate=100*(Lummax−Lumcompound)/(Lummax−Lummin)%, • where Lummax refers to the luminescence signal value of the well containing cells and 0.25% v/v DMSO; Lumcompound refers to the luminescence signal value of the well containing the compound and cells; and Lummin refers to the luminescence signal value of the well containing the medium and 0.25% v/v DMSO.

[3] = test system: DLD-1 parental cells; assay: as above; assay type: cell-based; conditions: Homo sapiens, read-out: DLD-1 parental cell IC50
Description: as §1, §2, §3, §4, §5

[4] = 168 h, DLD-1 BRCA2 (−/−) cells, 7 days of incubation, CTG
[5] = 168 h, DLD-1 parental cells, 7 days of incubation, CTG

N-terminal active peptide segment (MI-N899) of POLQ with ATPase activity, sequence (O75417 1-899 limits assumed): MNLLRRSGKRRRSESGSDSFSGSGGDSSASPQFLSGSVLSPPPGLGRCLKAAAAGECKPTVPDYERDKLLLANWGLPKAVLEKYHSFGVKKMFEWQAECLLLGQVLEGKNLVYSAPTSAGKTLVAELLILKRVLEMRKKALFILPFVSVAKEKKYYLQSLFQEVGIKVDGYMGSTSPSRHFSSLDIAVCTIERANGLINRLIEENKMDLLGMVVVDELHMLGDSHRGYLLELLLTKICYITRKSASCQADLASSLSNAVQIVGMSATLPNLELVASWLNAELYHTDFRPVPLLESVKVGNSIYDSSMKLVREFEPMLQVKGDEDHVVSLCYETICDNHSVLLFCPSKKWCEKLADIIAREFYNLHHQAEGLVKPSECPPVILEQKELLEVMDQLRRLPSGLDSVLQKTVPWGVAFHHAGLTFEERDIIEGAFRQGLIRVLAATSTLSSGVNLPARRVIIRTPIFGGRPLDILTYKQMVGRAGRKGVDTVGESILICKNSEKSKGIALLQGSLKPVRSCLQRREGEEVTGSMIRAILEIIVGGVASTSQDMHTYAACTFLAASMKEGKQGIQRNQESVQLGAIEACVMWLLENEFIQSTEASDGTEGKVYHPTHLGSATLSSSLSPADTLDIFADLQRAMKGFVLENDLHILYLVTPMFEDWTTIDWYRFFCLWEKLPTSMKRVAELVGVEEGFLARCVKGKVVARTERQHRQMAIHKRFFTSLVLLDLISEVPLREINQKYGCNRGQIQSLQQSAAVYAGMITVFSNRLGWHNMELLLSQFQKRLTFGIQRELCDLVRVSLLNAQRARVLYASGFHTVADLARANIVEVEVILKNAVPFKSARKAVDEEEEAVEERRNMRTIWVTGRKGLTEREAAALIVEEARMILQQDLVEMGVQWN

SMILES | IC50 [1] [nM] | IC50 [2, 4] [nM] | IC50 [3, 5] [nM] | IC50 ([2]; DLD-1, 168 h) [nM] | IC50 ([3]; DLD-1, 168 h) [nM]
COc1ccccc1-c1cnccc1C(=O)Nc1nc2ncc(-c3ccc(C#N)cc3)nc2s1 [Compound 9, N-(6-(4-cyanophenyl)thiazolo[4,5-b]pyrazin-2-yl)-3-(2-methoxyphenyl)pyridine-4-carboxamide] | < 100 | < 200 | > 10000 | – | –
COc1ccccc1-c1ccncc1C(=O)Nc1nc2ncc(-c3ccc(C#N)cc3)nc2s1 [Compound 16, N-(6-(4-cyanophenyl)thiazolo[4,5-b]pyrazin-2-yl)-4-(2-methoxyphenyl)nicotinamide] | < 100 | 200 to 500 | > 10000 | – | –
COc1cnc(Cl)cc1-c1cc(C)ncc1C(=O)Nc1nc2ncc(-c3ccc(C#N)cc3)nc2s1 [Compound 20, 2′-chloro-N-(6-(4-cyanophenyl)thiazolo[4,5-b]pyrazin-2-yl)-5′-methoxy-6-methyl-[4,4′-bipyridine]-3-carboxamide] | < 100 | < 200 | > 10000 | – | –
COc1cnc(C)cc1-c1cc(C)ncc1C(=O)Nc1nc2ncc(-c3ccc(C#N)cc3)nc2s1 [Compound 21, N-(6-(4-cyanophenyl)thiazolo[4,5-b]pyrazin-2-yl)-5′-methoxy-2′,6-dimethyl-[4,4′-bipyridine]-3-carboxamide] | < 100 | < 200 | > 10000 | – | –
COc1cnc(C)cc1-c1cc(C)ncc1C(=O)Nc1nc2ncc(-c3ccc(C4CC4)cn3)nc2s1 [Compound 24, N-(6-(5-cyclopropylpyridin-2-yl)thiazolo[4,5-b]pyrazin-2-yl)-5′-methoxy-2′,6-dimethyl-[4,4′-bipyridine]-3-carboxamide] | < 100 | < 200 | > 10000 | – | –
COc1cnc(C)cc1-c1cc(C)ncc1C(=O)Nc1nc2ncc(-c3ccc(OC(F)F)cn3)nc2s1 [Compound 25, N-(6-(5-(difluoromethoxy)pyridin-2-yl)thiazolo[4,5-b]pyrazin-2-yl)-5′-methoxy-2′,6-dimethyl-[4,4′-bipyridine]-3-carboxamide] | < 100 | < 200 | > 10000 | – | –
COc1ccc(Cl)cc1-c1cc(C)ncc1C(=O)Nc1nc2ncc(-c3ccc(C#N)cn3)nc2s1 [Compound 26, 4-(5-chloro-2-methoxyphenyl)-N-(6-(5-cyanopyridin-2-yl)thiazolo[4,5-b]pyrazin-2-yl)-6-methylnicotinamide] | < 100 | < 200 | > 10000 | – | –
COc1cnc(C)cc1-c1cc(C)ncc1C(=O)Nc1nc2ncc(-c3ccc(C(F)(F)F)cn3)nc2s1 [Compound 27, 5′-methoxy-2′,6-dimethyl-N-(6-(5-(trifluoromethyl)pyridin-2-yl)thiazolo[4,5-b]pyrazin-2-yl)-[4,4′-bipyridine]-3-carboxamide] | < 100 | < 200 | > 10000 | – | –
C#Cc1ccccc1-c1cnccc1C(=O)Nc1nc2ncc(-c3ccc(C#N)cc3)nc2s1 [Compound 30, N-(6-(4-cyanophenyl)thiazolo[4,5-b]pyrazin-2-yl)-3-(2-ethynylphenyl)pyridine-4-carboxamide] | < 100 | – | – | < 200 | > 10000

Now from value to compound, other results behind:

IC50 [1] [nM] | IC50 [2, 4] [nM] | SMILES | IC50 [3, 5] [nM] | IC50 ([2]; DLD-1, 168 h) [nM] | IC50 ([3]; DLD-1, 168 h) [nM]
< 100 | 200 to 500 | COc1ccccc1-n1cncc1C(=O)Nc1nc2ncc(-c3ccc(C#N)cc3)nc2s1 [Compound 32, N-(6-(4-cyanophenyl)thiazolo[4,5-b]pyrazin-2-yl)-1-(2-methoxyphenyl)-1H-imidazole-5-carboxamide] | > 10000 | – | –
< 100 | < 200 | COc1ccc(C#N)cc1-c1cc(C#N)ncc1C(=O)Nc1nc2ncc(-c3ccc(C#N)cc3)nc2s1 [Compound 33, 6-cyano-4-(5-cyano-2-methoxyphenyl)-N-(6-(4-cyanophenyl)thiazolo[4,5-b]pyrazin-2-yl)pyridine-3-carboxamide] | > 10000 | – | –
< 100 | < 200 | COc1cccc(F)c1-c1cnccc1C(=O)Nc1nc2ncc(-c3ccc(C#N)cc3)nc2s1 [Compound 34, N-(6-(4-cyanophenyl)thiazolo[4,5-b]pyrazin-2-yl)-3-(2-fluoro-6-methoxyphenyl)pyridine-4-carboxamide] | > 10000 | – | –
< 100 | 200 to 500 | C#Cc1ccccc1-c1cc(C)ncc1C(=O)Nc1nc2ncc(-c3ccc(C#N)cc3)nc2s1 [Compound 42, N-(6-(4-cyanophenyl)thiazolo[4,5-b]pyrazin-2-yl)-4-(2-ethynylphenyl)-6-methylpyridine-3-carboxamide] | > 10000 | – | –
< 100 | < 200 | COc1ccc(C#N)cc1-c1cc(C)ncc1C(=O)Nc1nc2ncc(-c3ccc(Cl)cc3)nc2s1 [Compound 46, N-(6-(4-chlorophenyl)thiazolo[4,5-b]pyrazin-2-yl)-4-(5-cyano-2-methoxyphenyl)-6-methylpyridine-3-carboxamide] | > 10000 | – | –
< 100 | 200 to 500 | C#Cc1ccc(F)cc1-c1cc(C)ncc1C(=O)Nc1nc2ncc(-c3ccc(C#N)cc3)nc2s1 [Compound 48, N-(6-(4-cyanophenyl)thiazolo[4,5-b]pyrazin-2-yl)-4-(2-ethynyl-5-fluorophenyl)-6-methylpyridine-3-carboxamide] | > 10000 | – | –
< 100 | < 200 | COc1ccc(C#N)cc1-c1cc(C)ncc1C(=O)Nc1nc2ncc(-c3ccc(C#N)cc3)nc2s1 [Compound 58, 4-(5-cyano-2-methoxyphenyl)-N-(6-(4-cyanophenyl)thiazolo [4,5-b]pyrazin-2-yl)-6-methylpyridine-3-carboxamide] | > 10000 | – | –
< 100 | < 200 | COc1cnc(Cl)cc1-c1cc(C)ncc1C(=O)Nc1nc2ncc(-c3ccc(C#N)cn3)nc2s1 [Compound 61, N-(6-(5-cyanopyridin-2-yl)thiazolo[4,5-b]pyrazin-2-yl)-2′-chloro-5′-methoxy-6-methyl-[4,4-bipyridine]-3-carboxamide] | > 10000 | – | –
< 100 | < 200 | COc1ccc(C#N)cc1-c1cc(C)ncc1C(=O)Nc1nc2ncc(-c3ccc(Cl)cn3)nc2s1 [Compound 62, N-(6-(5-chloropyridin-2-yl)thiazolo[4,5-b]pyrazin-2-yl)-4-(5-cyano-2-methoxyphenyl)-6-methylpyridine-3-carboxamide] | > 10000 | – | –
< 100 | 200 to 500 | COc1cnc(C#N)cc1-c1cc(C)ncc1C(=O)Nc1nc2ncc(-c3ccc(Cl)cc3)nc2s1 [Compound 63, N-(6-(4-chlorophenyl)thiazolo[4,5-b]pyrazin-2-yl)-2′-cyano-5′-methoxy-6-methyl-[4,4′-bipyridine]-3-carboxamide] | > 10000 | – | –
< 100 | < 200 | COc1cnc(C)cc1-c1cc(C)ncc1C(=O)Nc1nc2ncc(-c3ccc(C(C)(C)C#N)cn3)nc2s1 [Compound 68, N-[6-[5-(1-cyano-1-methyl-ethyl)pyridin-2-yl]thiazolo[4,5-b]pyrazin-2-yl]-4-(5-methoxy-2-methylpyridine-4-yl)-6-methyl-pyridine-3-carboxamide] | > 10000 | – | –
< 100 | < 200 | COc1cnc(C2CC2)cc1-c1cc(C)ncc1C(=O)Nc1nc2ncc(-c3ccc(C#N)cc3)nc2s1 [Compound 72, N-(6-(4-cyanophenyl)thiazolo[4,5-b]pyrazin-2-yl)-2′-cyclopropyl-5′-methoxy-6-methyl-[4,4′-bipyridine]-3-carboxamide] | > 10000 | – | –
